Experimental data reported in paper PMC10733463, “Berberine-microbiota interplay: orchestrating gut health through modulation of the gut microbiota and metabolic transformation into bioactive metabolites” (Frontiers in Pharmacology, 2023).
Read-outs that look alike come from different tables or passages of the source.

Legend:
[1] = UPLC-MS/MS quantification of berberine and metabolites in plasma; assay type: in vivo, Ross 308 broiler chickens; conditions: lowest berberine supplementation level (0.1 g/kg feed)
From the text: The study was undertaken following the guidelines of the ethics committee of the Faculty of Veterinary Medicine and Bioscience Engineering, Ghent University, in accordance with the EU Directive 2010/63/EU. One-day-old Ross 308 male broilers were obtained from a local hatchery and housed in pens on wood shavings. They were allotted into 4 groups, with three replicate pens per group each housing 8 chickens. The animals were not vaccinated. Water and commercial starter feed (day 1–12, FARM 1 Mash, Country’s Best, Versele Laga, Deinze, Belgium) or grower (day 13–21, FARM 2 mash, Country’s Best, Versele Laga, Deinze, Belgium) were provided ad libitum. The control group received the standard non-supplemented diets, whereas the chickens in other groups were fed the same feed supplemented with 0.1, 0.5 or 1 g berberine/kg feed throughout the whole trial period. At day 21, 4 birds per pen were weighted then euthanized by sodium pentobarbital injection for sampling. Individual jejunal, ileal, caecal and colonic contents were stored at −20°C for microbiota composition analysis (16S rRNA gene sequencing). Additionally, ileal and caecal content samples were collected and stored at −20°C for berberine and berberine-derived metabolite quantification. Duodenal tissue samples were collected and fixed in 4% phosphate buffered formaldehyde for histological analysis. Blood samples were collected in heparin tubes and centrifuged at 524 g for 10 min to recover the plasma fraction, which was further mixed with 17 mg/mL L-ascorbic acid for dihydroberberine stabilization, and stored at −20°C for berberine and berberine-derived metabolite quantification.
The column temperature was maintained at 25°C. The autosampler temperature was set at 10°C.
A 137.5 µL plasma sample containing 17 mg/mL L-ascorbic acid was used for sample extraction. The ascorbic acid solution was added to prevent oxidation of dihydroberberine to berberine during sample storage ([Feng et al., 2015]). The plasma sample was transferred to an OstroTM 96 well-plate (25 mg) (Waters). Subsequently, 50 µL Milli-Q water and 25 µL of an internal standard solution containing 100 ng/mL of both berberine-d6 and tetrahydropalmatine were added. A 640 µL volume of 1% (v/v) formic acid solution in acetonitrile (1/3 ratio) was added, followed by gentle mixing. Vacuum was applied on the Ostro™ plate for 5 min and the eluate was collected in a 2 mL square 96-well collector plate. The sample was transferred in a glass tube and evaporated at 40°C under a gentle stream of nitrogen in a Pierce (Rockford, United States) Reacti-Therm III™ Heating Module and Reacti-Vap™ III Module. The dried sample extract was reconstituted in 500 µL Milli-Q water, followed by injection of a 5 µL sample aliquot onto the UPLC-MS/MS apparatus. Quantification was based on the ratio of the analyte peak area compared to the peak area of the internal standard berberine-d6.
Calibration standards and quality control samples were prepared as follows: 137.5 µL of blank plasma stabilized with 17 mg/mL L-ascorbic acid were supplemented with 25 µL mixed working solutions of berberine and metabolites (except dihydroberberine) at different levels, 25 µL of dihydroberberine working solution, stabilized with 17 mg/mL L-ascorbic acid, at different levels and 25 µL of an internal standard solution containing 100 ng/mL of both berberine-d6 and tetrahydropalmatine. The calibration curve was in the 0.1–100 ng/mL range, including 0.1, 0.5, 1, 2.5, 5, 10, 25, […], 50 and 100 ng/mL levels.
The UPLC-MS/MS analysis method for the quantification of berberine and berberine-derived metabolites both in plasma and ileal/caecal intestinal content was validated to the guidelines of the European Medicines Agency, i.e., of the Committee for Veterinary Medicinal Products (EMEA/CVMP/VICH/463202/2009) and of the Committee for Medicinal Products for Human Use (EMEA/CHMP/EWP/192217/20), and in accordance with the EU Directive 2002/657/EC. […]

B. coccoides (DSM 935) = conditions: Blautia coccoides, 10 µg/mL, pH 6
caecal microbiota = experiment: SCFA quantification in caecal microbiota cultures supplemented with berberine or berberrubine; assay type: cell-based, broiler chicken; conditions: 24 h
Method: As berberine and its demethylated metabolites correlated with SCFAs in vivo, their ability to directly influence SCFA metabolism was assessed in vitro. […] Cultures were centrifuged at 3,724 g for 5 min 1 mL 1:2 diluted supernatant in Milli-Q water was used for SCFA analysis. Acetate, propionate and butyrate were quantified using the GC-FID method described by ([De […] et al., 2010]). This method involves the extraction of SCFA from samples with diethyl ether after the addition of 2-methyl hexanoic acid as an internal standard.

[2] = rats, 2021, cited from earlier work; for Total recovery in feces: ref Ma et al., 2013, Feng et al.
[3] = oral administration of berberine, ref Feng et al.

Row | Structure (SMILES) | Quantification in plasma [1] | Log2(fold change) of metabolite response at 48 h, B. coccoides pure culture over berberine-medium (B. coccoides (DSM 935)) | Concentrations of acetate, butyrate and propionate in caecal microbiota cultures (caecal microbiota; higher concentration (2.5 µM)) | Excretion in bile [2, 3] [%] | Excretion in feces [2, 3] [%] | Excretion in urine [2, 3] [%] | Total recovery in feces ([2]; oral berberine 48.2 mg/kg) [%] | Total recovery in feces ([2]; oral berberine 200 mg/kg) [%] | SCFA production in caecal microbiota cultures (caecal microbiota; 25, 2.5 µM)
1 | COc1cc2c(cc1O)CC[n+]1cc3c(OC)c(OC)ccc3cc1-2 [Jatrorrhizine, Jatrorrhizine chloride] | could also not be quantified | -2.05 |  |  |  |  |  |  | 
2 | COc1ccc2cc3[n+](cc2c1O)CCc1cc2c(cc1-3)OCO2 [Berberrubine, berberrubine chloride] | could also not be quantified | 1.96 | increased | 2.6 | 18.6 | 1.2 | 18.6 | 1.14 | 
3 | COc1ccc2cc3[n+](cc2c1OC)CCc1cc2c(cc1-3)OCO2 [Berberine, Berberine chloride] |  |  |  |  |  |  | 8.4 | 19.05 | did not significantly affect
